Our source for the IC50 values is patent publication US7074789B2, “Kinase inhibitors” (Amgen Inc., priority 1999, dated 2006).

Like-named read-outs stand apart in the source and are kept apart here.

Holding throughout (format): biochemical
One test concerns the target T1, Zap-70 (Homo sapiens, UniProt P43403).
T1 construct: Kinases are expressed as either kinase domains or full length constructs; made in house
T1 sequence (P43403 1-619): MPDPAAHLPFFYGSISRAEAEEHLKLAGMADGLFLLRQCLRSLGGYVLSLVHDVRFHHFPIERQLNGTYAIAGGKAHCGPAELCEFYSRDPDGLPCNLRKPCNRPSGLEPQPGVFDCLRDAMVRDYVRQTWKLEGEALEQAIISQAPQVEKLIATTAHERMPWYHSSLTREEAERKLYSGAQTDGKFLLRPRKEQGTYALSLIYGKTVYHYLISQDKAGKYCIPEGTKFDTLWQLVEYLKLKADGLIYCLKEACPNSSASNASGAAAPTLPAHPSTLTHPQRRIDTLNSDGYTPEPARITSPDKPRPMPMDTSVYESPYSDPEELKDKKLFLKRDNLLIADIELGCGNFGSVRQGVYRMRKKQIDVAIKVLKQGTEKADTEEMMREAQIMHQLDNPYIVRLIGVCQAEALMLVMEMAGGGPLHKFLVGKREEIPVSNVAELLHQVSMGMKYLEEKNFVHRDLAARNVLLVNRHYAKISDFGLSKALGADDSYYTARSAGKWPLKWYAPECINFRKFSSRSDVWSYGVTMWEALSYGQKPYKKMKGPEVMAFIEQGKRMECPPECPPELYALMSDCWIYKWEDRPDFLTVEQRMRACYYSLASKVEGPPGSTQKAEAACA
Briefly: Kinase inhibition assay (33P transfer), Zap-70. Particulars: read-out: Zap-1. The method in brief: (§1)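 Kinase domain or full-length constructs, GST- or polyHis-tagged, expressed in E. coli or baculovirus-High Five cells, sometimes with regulatory polypeptides. Activity measured as 33PO4 transfer from ATP to plate-bound poly(Glu,Tyr) 4:1 or poly(Arg,Ser) 3:1; after incubation, plates washed with 0.5% phosphoric acid and counted by liquid scintillation.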

The target of the next test is T2, EGFR (Homo sapiens, UniProt P00533).
T2 construct: Kinases are expressed as either kinase domains or full length constructs; made in house
Briefly: Kinase inhibition assay (33P transfer), EGFR. Particulars: Table 2, kinase inhibition class; read-out: EGFR-1. An outline of the steps:
(§2)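 Recombinant kinase domains or full-length GST- or His-tagged constructs, from E. coli or baculovirus/High Five cells, sometimes with regulatory polypeptides. Transfer of 33P from ATP to plate-bound poly(Glu,Tyr) 4:1 or poly(Arg,Ser) 3:1 counted by liquid scintillation after phosphoric acid wash; IC50 is the concentration halving incorporation.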

The target in a further test is T3, AKT (Homo sapiens, UniProt Q9Y243).
T3 construct: Kinases are expressed as either kinase domains or full length constructs; made in house
Briefly: Kinase inhibition assay (33P transfer), AKT. Conditions: Table 2, kinase inhibition class; read-out: AKT3-1. The method in brief: as §1

Another test concerns the target T4, Kdr (Homo sapiens, UniProt P35968).
T4 construct: Kinases are expressed as either kinase domains or full length constructs; made in house
In words: Kinase inhibition assay (33P transfer), Kdr. Particulars: read-out: KDR-1. An outline of the steps: as §1

A further test has as its target T5, Itk (Homo sapiens, UniProt Q08881).
T5 construct: Kinases are expressed as either kinase domains or full length constructs; made in house
T5 sequence (Q08881 1-620): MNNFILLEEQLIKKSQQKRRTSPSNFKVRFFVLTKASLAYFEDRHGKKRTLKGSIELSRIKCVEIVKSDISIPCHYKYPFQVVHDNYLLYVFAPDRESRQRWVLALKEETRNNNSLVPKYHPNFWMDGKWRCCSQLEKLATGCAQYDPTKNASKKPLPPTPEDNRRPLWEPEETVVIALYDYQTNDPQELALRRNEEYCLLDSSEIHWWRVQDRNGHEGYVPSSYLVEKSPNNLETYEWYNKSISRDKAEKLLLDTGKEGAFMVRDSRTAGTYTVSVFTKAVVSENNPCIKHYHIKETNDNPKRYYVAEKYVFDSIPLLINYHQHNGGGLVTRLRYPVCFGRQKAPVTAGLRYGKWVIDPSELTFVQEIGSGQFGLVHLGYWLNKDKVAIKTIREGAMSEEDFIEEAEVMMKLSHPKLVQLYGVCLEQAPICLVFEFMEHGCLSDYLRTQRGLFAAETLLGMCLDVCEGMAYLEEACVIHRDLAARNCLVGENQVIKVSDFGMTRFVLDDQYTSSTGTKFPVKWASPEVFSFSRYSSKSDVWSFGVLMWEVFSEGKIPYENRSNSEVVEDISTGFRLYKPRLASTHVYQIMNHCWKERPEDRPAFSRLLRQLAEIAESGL
In words: Kinase inhibition assay (33P transfer), Itk. Particulars: read-out: Itk-1. The method in brief: as §2

The next test addresses T6, Lck (Homo sapiens, UniProt P06239).
T6 construct: Kinases are expressed as either kinase domains or full length constructs; made in house
Briefly: Kinase inhibition assay (33P transfer), Lck. Particulars: read-out: Lck-1. The method in brief: as §1

The target of the next test is T7, c-Met (Homo sapiens, UniProt P08581).
T7 construct: Kinases are expressed as either kinase domains or full length constructs; made in house
In words: Kinase inhibition assay (33P transfer), c-Met. Conditions: Table 2, kinase inhibition class; read-out: Met-1. The method in brief: as §2

A further test addresses T8, Tek (Homo sapiens, UniProt Q02763).
T8 construct: Kinases are expressed as either kinase domains or full length constructs; made in house
In words: Kinase inhibition assay (33P transfer), Tek. Particulars: read-out: Tek-1. From the text:
The inhibitor compounds described herein are screened in the following manner. Kinases suitable for use in the following protocol to determine kinase activity of the compounds described herein include, -but are not limited to: Lck, Lyn, Src, Fyn, Syk, Zap-70, Itk, Tec, Btk, EGFR, ErbB2, Kdr, Flt-1, Flt-3, Tek, c-Met, InsR, and AKT.
Kinases are expressed as either kinase domains or full length constructs fused to glutathione S-transferase (GST) or polyHistidine tagged fusion proteins in either E. colior Baculovirus-High Five expression systems. They are purified to near homogeneity by affinity chromatography essentially as previously described (Lehr et al., 1996; Gish et al., 1995). In some instances, kinases are co-expressed or mixed with purified or partially purified regulatory polypeptides prior to measurement of activity.
Kinase activity and inhibition are measured essentially by established protocols (Braunwalder et al., 1996). Briefly, The transfer of ^33PO4 from ATP to the synthetic substrates poly(Glu, Tyr) 4:1 or poly(Arg, Ser) 3:1 attached to the bioactive surface of microtiter plates serves as the basis to evaluate enzyme activity. After an incubation period, the amount of phosphate transferred is measured by first washing the plate with 0.5% phosphoric acid, adding liquid scintillant, and then counting in a liquid scintillation detector. The IC50 is determined by the concentration of compound that causes a 50% reduction in the amount of […] incorporated onto the substrate bound to the plate.

T4 sequence (P35968 20-1356, species assumed): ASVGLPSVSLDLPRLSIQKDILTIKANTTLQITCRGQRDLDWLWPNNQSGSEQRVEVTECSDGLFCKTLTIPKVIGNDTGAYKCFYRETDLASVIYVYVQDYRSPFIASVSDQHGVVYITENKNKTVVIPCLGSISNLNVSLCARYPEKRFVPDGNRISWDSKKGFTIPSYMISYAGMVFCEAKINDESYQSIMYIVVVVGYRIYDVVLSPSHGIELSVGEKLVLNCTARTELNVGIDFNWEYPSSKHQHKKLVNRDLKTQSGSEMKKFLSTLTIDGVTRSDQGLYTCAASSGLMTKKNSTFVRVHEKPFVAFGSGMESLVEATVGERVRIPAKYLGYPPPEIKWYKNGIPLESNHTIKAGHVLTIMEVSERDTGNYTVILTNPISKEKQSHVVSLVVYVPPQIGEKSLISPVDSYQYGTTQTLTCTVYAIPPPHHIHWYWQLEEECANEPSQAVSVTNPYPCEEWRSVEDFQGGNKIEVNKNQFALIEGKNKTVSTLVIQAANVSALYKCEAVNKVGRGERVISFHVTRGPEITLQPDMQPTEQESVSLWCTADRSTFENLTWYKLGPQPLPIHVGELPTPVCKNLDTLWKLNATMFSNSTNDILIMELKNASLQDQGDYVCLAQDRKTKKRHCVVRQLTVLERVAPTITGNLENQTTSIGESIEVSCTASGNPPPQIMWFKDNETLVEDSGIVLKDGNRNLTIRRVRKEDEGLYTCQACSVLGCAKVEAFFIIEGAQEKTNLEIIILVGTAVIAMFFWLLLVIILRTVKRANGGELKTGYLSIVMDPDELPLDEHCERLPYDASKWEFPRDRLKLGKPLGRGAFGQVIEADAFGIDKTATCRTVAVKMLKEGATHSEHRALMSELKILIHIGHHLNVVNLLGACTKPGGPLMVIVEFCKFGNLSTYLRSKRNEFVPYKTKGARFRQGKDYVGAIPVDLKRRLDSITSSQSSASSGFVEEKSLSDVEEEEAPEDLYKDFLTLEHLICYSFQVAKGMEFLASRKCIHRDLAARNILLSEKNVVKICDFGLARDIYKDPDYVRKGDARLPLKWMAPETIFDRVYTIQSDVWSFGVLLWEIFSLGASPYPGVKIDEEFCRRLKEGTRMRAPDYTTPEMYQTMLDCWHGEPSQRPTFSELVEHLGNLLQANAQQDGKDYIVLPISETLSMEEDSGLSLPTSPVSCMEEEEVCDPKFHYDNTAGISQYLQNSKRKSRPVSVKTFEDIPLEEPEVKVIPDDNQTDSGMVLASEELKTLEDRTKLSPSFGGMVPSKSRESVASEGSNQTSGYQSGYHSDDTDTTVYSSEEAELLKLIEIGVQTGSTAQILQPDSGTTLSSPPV
T6 sequence (P06239 whole entry, species assumed, the tested form may be a part): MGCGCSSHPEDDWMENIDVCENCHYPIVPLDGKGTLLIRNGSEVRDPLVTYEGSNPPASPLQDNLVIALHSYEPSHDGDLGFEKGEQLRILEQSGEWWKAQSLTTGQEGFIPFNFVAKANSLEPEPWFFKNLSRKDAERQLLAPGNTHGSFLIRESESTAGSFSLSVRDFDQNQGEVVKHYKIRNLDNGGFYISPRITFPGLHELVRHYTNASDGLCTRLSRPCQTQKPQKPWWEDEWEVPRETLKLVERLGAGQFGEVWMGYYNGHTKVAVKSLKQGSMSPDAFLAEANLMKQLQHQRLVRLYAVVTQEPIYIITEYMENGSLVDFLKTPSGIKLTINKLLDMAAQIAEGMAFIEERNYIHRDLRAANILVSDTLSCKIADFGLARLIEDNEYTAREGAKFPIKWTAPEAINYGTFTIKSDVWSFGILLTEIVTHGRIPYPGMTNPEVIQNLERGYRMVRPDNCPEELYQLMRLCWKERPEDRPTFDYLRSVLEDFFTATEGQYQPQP
T3 sequence (Q9Y243 whole entry, the tested form may be a part): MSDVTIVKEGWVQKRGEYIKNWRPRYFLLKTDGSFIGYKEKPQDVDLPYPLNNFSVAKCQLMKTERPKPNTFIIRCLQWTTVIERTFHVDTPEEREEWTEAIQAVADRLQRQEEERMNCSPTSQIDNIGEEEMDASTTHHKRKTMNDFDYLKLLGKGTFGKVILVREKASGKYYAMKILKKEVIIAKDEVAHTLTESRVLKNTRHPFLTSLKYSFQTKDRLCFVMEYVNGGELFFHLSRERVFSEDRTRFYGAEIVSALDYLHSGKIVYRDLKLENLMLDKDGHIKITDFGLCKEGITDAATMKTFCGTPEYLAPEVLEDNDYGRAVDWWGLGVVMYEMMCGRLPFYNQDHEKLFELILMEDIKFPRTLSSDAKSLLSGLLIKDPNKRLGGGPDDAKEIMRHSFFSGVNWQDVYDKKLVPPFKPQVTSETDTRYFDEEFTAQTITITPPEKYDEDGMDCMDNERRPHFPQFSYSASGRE
T2 sequence (P00533 25-1210, species assumed): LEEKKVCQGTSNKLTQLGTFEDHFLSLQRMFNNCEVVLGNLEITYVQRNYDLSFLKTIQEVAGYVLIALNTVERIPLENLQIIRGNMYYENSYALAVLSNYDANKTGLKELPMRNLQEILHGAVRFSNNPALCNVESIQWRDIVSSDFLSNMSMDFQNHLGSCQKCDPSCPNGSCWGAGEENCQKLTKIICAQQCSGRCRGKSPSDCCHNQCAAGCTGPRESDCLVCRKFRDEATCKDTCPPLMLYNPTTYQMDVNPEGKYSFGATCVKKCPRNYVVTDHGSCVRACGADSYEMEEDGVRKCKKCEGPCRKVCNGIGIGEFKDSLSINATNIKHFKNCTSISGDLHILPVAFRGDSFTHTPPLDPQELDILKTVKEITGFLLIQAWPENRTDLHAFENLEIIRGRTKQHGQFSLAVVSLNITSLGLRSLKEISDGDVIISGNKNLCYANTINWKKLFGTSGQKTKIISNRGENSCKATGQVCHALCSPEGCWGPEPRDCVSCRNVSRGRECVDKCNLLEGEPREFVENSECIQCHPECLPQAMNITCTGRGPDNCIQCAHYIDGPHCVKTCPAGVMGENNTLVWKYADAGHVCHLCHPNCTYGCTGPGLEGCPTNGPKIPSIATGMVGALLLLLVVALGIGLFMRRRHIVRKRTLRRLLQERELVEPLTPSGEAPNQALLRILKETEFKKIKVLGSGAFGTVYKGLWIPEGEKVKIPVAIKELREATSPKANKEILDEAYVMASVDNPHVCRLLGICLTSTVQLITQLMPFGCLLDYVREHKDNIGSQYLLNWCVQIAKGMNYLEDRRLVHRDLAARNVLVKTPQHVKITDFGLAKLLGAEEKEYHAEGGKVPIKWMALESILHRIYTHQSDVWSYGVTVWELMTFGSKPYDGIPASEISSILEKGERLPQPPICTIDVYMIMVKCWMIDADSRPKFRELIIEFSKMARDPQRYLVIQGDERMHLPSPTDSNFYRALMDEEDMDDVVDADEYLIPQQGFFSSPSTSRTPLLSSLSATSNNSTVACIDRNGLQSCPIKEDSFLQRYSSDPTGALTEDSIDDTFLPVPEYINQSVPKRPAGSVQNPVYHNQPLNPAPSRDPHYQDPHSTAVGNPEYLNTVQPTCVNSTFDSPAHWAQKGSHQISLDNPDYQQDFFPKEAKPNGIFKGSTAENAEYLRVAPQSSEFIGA
T7 sequence (P08581 25-1390): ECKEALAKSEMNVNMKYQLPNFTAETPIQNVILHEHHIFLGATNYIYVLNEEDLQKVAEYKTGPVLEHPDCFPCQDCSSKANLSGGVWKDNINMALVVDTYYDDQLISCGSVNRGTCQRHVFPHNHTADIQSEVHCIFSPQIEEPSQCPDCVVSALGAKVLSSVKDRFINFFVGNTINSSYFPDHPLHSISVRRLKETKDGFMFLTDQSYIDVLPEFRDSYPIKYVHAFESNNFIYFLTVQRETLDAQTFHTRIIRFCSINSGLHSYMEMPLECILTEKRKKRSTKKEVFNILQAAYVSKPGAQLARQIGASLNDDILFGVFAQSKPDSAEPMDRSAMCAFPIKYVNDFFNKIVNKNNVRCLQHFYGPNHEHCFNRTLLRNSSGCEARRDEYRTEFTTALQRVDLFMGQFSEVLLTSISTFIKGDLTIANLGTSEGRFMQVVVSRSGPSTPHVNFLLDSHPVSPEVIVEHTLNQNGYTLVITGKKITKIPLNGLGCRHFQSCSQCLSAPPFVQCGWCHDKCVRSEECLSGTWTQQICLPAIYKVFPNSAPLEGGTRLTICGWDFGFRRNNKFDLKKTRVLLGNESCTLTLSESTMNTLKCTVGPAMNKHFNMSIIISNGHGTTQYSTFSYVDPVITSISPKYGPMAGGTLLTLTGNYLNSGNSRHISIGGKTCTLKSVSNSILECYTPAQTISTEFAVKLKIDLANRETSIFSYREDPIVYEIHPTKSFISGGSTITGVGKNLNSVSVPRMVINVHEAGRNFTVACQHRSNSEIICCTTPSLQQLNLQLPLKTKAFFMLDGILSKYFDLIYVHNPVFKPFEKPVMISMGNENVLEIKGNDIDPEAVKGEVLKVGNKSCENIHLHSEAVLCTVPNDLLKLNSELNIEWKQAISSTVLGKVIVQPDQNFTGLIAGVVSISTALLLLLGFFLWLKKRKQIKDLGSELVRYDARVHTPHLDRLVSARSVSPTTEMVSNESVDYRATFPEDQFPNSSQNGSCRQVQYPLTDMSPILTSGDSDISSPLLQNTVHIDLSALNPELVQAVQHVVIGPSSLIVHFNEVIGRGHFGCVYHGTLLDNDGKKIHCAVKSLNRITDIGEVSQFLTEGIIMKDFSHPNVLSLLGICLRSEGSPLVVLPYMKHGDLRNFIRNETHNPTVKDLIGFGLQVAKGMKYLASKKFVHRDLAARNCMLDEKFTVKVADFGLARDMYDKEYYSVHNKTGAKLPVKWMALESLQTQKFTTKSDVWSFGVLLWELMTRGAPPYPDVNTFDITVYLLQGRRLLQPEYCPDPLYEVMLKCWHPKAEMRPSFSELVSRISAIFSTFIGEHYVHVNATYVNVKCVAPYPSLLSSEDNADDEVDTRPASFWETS

As for `COc1cc(Nc2ncnc(Nc3n[nH]c(Nc4ccc(Cl)cc4)n3)n2)cc(OC)c1OC` [Compound 1003], the IC50 is 5.11 to 7.45 µM at Zap-70; 5.11 to 7.45 µM on EGFR; more than 9.58 µM at AKT; 0.851 to 5.11 µM at Kdr; 0.851 to 5.11 µM on Itk; 0.851 to 5.11 µM at Lck. In addition, the IC50 at c-Met and on Tek was 0.851 to 5.11 µM each time.

As for `CCOC(=O)Cc1ccc(Nc2ncnc(Nc3cc(-c4ccco4)n[nH]3)n2)cc1` [Compound 432], the IC50 is more than 11.1 µM on Zap-70 (Table 3); 0.987 to 5.92 µM on EGFR; more than 11.1 µM on AKT; 0.987 to 5.92 µM on Kdr (Table 3); 8.63 to 11.1 µM on Itk (Table 3); more than 11.1 µM at Lck (Table 3). For the same compound, the figures for the IC50 on c-Met and at Tek were 0.987 to 5.92 µM and more than 11.1 µM, respectively.

For the compound `Nc1nc2ccccc2n1-c1ncnc(Nc2ccc(Cl)cc2)n1` [Compound 478], the IC50 at Zap-70, on EGFR, on AKT, at Kdr, on Itk and on Lck was 1.18 to 7.11 µM each time. For the same compound, the IC50 at c-Met and at Tek was 1.18 to 7.11 µM throughout.

In the case of `COc1cc(Nc2ncnc(Nc3ccc(NC(=O)O[C@@H]4CCOC4)cc3)n2)cc(OC)c1OC` [Compound 693], the IC50 on Zap-70 is more than 9.33 µM; on EGFR it was 0.829 to 4.97 µM; at AKT, more than 9.33 µM; on Kdr, 0.829 to 4.97 µM; on Itk, 4.97 to 7.25 µM; on Lck, 0.829 to 4.97 µM. Further, the IC50 was 0.829 to 4.97 µM at c-Met and more than 9.33 µM on Tek.

Consider `O=C(O)Cc1ccc(Nc2ncnc(Nc3cc(-c4ccccc4)n[nH]3)n2)cc1` [Compound 982], for which the IC50 at Zap-70 was 1.03 to 6.2 µM; at EGFR, 1.03 to 6.2 µM; on AKT, 9.03 to 11.6 µM; at Kdr it was less than 1.03 µM; at Itk it was 1.03 to 6.2 µM; on Lck, 1.03 to 6.2 µM. Also, the IC50 on c-Met and on Tek was 1.03 to 6.2 µM throughout.

As to `O=c1[nH]c2ccccc2n1-c1ncnc(Nc2nccc3ccccc23)n1` [Compound 689], the IC50 on Zap-70 is 1.13 to 6.75 µM; at EGFR, 1.13 to 6.75 µM; on AKT it was more than 12.7 µM; on Kdr it was 6.75 to 9.85 µM; on Itk it was more than 12.7 µM; at Lck it was 6.75 to 9.85 µM. The IC50 at c-Met and on Tek was 6.75 to 9.85 µM each time.

For `Nc1nc2ccccc2n1-c1ncnc(N2C(=O)c3ccccc3C2=O)n1` [Compound 653], the IC50 on Zap-70, on EGFR, at AKT, on Kdr, at Itk and on Lck was more than 12.6 µM each time. Besides, the IC50 at c-Met and on Tek was more than 12.6 µM in each case.

As to `COc1cc(Nc2ncnc(-n3c(N(C)C)nc4ccccc43)n2)cc(OC)c1OC` [Compound 405], the IC50 at Zap-70 (Table 3) was more than 10.7 µM; on EGFR, more than 10.7 µM; at AKT it was more than 10.7 µM; at Kdr (Table 3) it was 0.949 to 5.69 µM; on Itk (Table 3), more than 10.7 µM; on Lck (Table 3), more than 10.7 µM. For the same compound, the IC50 at c-Met and on Tek was more than 10.7 µM each time.

For the compound `COc1cc(Nc2ncnc(NN3CCCC3)n2)cc(OC)c1OC` [Compound 1002], the IC50 at Zap-70 is more than 13 µM; on EGFR it was more than 13 µM; at AKT, more than 13 µM; on Kdr it was 10.1 to 13 µM; at Itk, more than 13 µM; on Lck it was more than 13 µM. In addition, the IC50 on c-Met and at Tek was more than 13 µM each time.

Take `COc1cc(Nc2ncnc(Nc3cccc(NC(=O)O[C@@H]4CCOC4)c3)n2)cc(OC)c1OC` [Compound 694]: the IC50 at Zap-70 was more than 9.33 µM; on EGFR it was 0.829 to 4.97 µM; on AKT, more than 9.33 µM; at Kdr, 0.829 to 4.97 µM; at Itk, 4.97 to 7.25 µM; on Lck it was 0.829 to 4.97 µM. Besides, the IC50 was more than 9.33 µM at c-Met and 7.25 to 9.33 µM on Tek.

With `COc1ccc(Nc2ncnc(-n3c(N)nc4ccccc43)n2)cn1` [Compound 648], the IC50 on Zap-70 is more than 13.5 µM; on EGFR it was more than 13.5 µM; on AKT, more than 13.5 µM; on Kdr it was 1.2 to 7.18 µM; on Itk, more than 13.5 µM; at Lck, more than 13.5 µM. Further, the IC50 at c-Met and at Tek was more than 13.5 µM in each case.

On to `COc1ccc(-c2ncnc(Nc3cc(OC)c(OC)c(OC)c3)n2)cc1OC` [Compound 230], for which the IC50 on Zap-70 was more than 11.3 µM; at EGFR, 8.78 to 11.3 µM; on AKT, more than 11.3 µM; at Kdr, less than 1 µM; at Itk, 8.78 to 11.3 µM; at Lck it was 1 to 6.02 µM. Further, the values for the IC50 on c-Met and on Tek were more than 11.3 µM and 8.78 to 11.3 µM, respectively.

Regarding `COC(=O)C(c1ccccc1)c1ncnc(Nc2cc(OC)c(OC)c(OC)c2)n1` (stereo not drawn) [Compound 1038], the IC50 is more than 11 µM at Zap-70; more than 11 µM on EGFR; more than 11 µM at AKT; more than 11 µM on Kdr; more than 11 µM at Itk; 0.975 to 5.85 µM on Lck. Moreover, the IC50 on c-Met and on Tek was more than 11 µM each time.

On to `COc1cc(Nc2ncnc(Nc3ncnc4[nH]cnc34)n2)cc(OC)c1OC` [Compound 696], for which the IC50 at Zap-70, at EGFR, at AKT, on Kdr, on Itk and on Lck was more than 11.4 µM each time. Moreover, the IC50 at c-Met and on Tek was more than 11.4 µM in each case.

Take `O=c1[nH]c2ccccc2n1-c1ncnc(Nc2ccc(NS(=O)(=O)c3ccc([N+](=O)[O-])cc3)cc2)n1` [Compound 422]: the IC50 on Zap-70 (Table 3) was more than 8.92 µM; at EGFR, 0.793 to 4.76 µM; on AKT, 0.793 to 4.76 µM; on Kdr (Table 3), 0.793 to 4.76 µM; on Itk (Table 3) it was more than 8.92 µM; on Lck (Table 3) it was more than 8.92 µM. The IC50 is more than 8.92 µM at c-Met and 6.94 to 8.92 µM at Tek.
